Data on 3 compounds can be found in ChEMBL document CHEMBL2429726, “Gamma secretase modulators” (ACS Med Chem Lett, 2013).

For one experiment, the system named is Rattus norvegicus. The experiment can be described thus: Antialzheimer activity in CD rat assessed as reduction of amyloid beta42 level in CSF at 30 mg/kg, po after 3 hrs relative to control. On the set-up: scale not given: the % may be the effect or the level left. Type of experiment: functional.
The next experiment addresses Gamma-secretase. Put plainly: Inhibition of gamma secretase-mediated amyloid beta42 production in HEK293 cells expressing APP after 5 hrs by sandwich immunoassay. The class given is cell-based, Homo sapiens.

The term IC50 denotes the concentration needed to halve the response being measured.

`COc1cc(-c2noc3c2CCCC3NCc2cc(F)cc(F)c2)ccc1-n1cnc(C)c1` (stereo unspecified): in the experiment on Rattus norvegicus, the Activity was 20%. The compound further displayed an IC50 on Gamma-secretase of 29 nM.

For the compound `COc1cc(-c2noc3c2CCCC3Nc2ccc(F)cc2)ccc1-n1cnc(C)c1` (stereo unspecified), the Activity with Rattus norvegicus was 58%. Besides, the IC50 against Gamma-secretase came to 39 nM.

On to `COc1cc(-c2noc3c2CCCC3(O)c2cc(F)cc(F)c2)ccc1-n1cnc(C)c1` (stereo unspecified), for which the Activity in the experiment on Rattus norvegicus came out at 20%. This compound returned an IC50 against Gamma-secretase of 190 nM.
